Reference: ChEMBL document CHEMBL4196124, “Reverse Hydroxamate Inhibitors of Bone Morphogenetic Protein 1” (ACS Med Chem Lett, 2018)
pIC50: −log10 of the molar value.

Legend:
Homo sapiens [1] = organism: Homo sapiens; test: Selectivity ratio of IC50 for recombinant human C-terminal MMP13 (85 to 255 residues) catalytic domain expressed in Escherichia coli to IC50 for recombinant human N-terminal 6His/flag-tagged BMP1 (121 to 721 residues) expressed in CHO cells
Homo sapiens [2] = organism: Homo sapiens; test: Selectivity ratio of IC50 for recombinant human C-terminal MMP7 (78 to 250 residues) catalytic domain expressed in Escherichia coli to IC50 for recombinant human N-terminal 6His/flag-tagged BMP1 (121 to 721 residues) expressed in CHO cells
Cytochrome P450 3A4 = Cytochrome P450 3A4 (Homo sapiens, UniProt P08684); test: Time dependent inhibition of CYP3A4 (unknown origin) at 33 uM measured over 15 mins relative to control; format: ADME; details: 0.25 h
Homo sapiens [3] = organism: Homo sapiens; test: Selectivity ratio of IC50 for recombinant human C-terminal MMP3 (83 to 255 residues) catalytic domain expressed in Escherichia coli to IC50 for recombinant human N-terminal 6His/flag-tagged BMP1 (121 to 721 residues) expressed in CHO cells
Homo sapiens [4] = organism: Homo sapiens; test: Selectivity ratio of IC50 for ADAM10 (unknown origin) to IC50 for recombinant human N-terminal 6His/flag-tagged BMP1 (121 to 721 residues) expressed in CHO cells; format: cell-based
Homo sapiens [5] = organism: Homo sapiens; test: Selectivity ratio of IC50 for ADAM9 (unknown origin) to IC50 for recombinant human N-terminal 6His/flag-tagged BMP1 (121 to 721 residues) expressed in CHO cells; format: cell-based
Homo sapiens [6] = organism: Homo sapiens; test: Selectivity ratio of IC50 for MMP8 (unknown origin) to IC50 for recombinant human N-terminal 6His/flag-tagged BMP1 (121 to 721 residues) expressed in CHO cells; format: cell-based
Homo sapiens [7] = organism: Homo sapiens; test: Selectivity ratio of IC50 for MMP10 (unknown origin) to IC50 for recombinant human N-terminal 6His/flag-tagged BMP1 (121 to 721 residues) expressed in CHO cells; format: cell-based
Tolloid-like protein 2 = target: T1, Tolloid-like protein 2 (Homo sapiens, UniProt Q9Y6L7); test: Inhibition of recombinant human N-terminal 6His-tagged TLL2 (26 to 1015 residues) expressed in CHO cells using ((5-FAM)-ELIDQYDVQRDDSSDGSLED-K(5,6 TAMRA)-CONH2) as substrate preincubated for 10 mins followed by substrate addition measured after 60 mins
T1 sequence (Q9Y6L7 whole entry): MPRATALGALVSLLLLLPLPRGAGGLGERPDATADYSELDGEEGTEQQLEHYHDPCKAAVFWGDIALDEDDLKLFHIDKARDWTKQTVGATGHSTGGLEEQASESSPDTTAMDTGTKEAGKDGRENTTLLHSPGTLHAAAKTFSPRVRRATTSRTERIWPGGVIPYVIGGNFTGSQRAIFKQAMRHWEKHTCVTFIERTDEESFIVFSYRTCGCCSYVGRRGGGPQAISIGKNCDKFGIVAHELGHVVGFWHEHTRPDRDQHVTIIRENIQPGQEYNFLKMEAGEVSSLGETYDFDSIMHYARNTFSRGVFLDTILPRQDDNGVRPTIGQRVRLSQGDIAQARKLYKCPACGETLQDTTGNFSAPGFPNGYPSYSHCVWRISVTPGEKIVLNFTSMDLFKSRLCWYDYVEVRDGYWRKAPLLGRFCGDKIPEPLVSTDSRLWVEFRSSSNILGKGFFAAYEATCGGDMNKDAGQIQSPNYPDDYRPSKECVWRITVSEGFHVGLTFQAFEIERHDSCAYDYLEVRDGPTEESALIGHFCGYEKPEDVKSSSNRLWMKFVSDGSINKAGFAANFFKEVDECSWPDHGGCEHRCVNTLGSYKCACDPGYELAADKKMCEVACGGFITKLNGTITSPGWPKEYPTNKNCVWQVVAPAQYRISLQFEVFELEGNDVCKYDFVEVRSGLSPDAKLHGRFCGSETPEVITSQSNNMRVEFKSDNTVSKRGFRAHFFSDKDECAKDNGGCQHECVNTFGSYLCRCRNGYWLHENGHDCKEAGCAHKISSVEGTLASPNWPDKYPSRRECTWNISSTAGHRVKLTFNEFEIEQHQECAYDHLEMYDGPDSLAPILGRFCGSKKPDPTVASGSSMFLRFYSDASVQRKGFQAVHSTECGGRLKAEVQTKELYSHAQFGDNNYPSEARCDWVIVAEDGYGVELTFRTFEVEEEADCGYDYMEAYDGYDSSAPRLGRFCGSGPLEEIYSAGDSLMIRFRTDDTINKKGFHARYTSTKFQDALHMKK

[8] = target: T2, Bone morphogenetic protein 1 (Homo sapiens, UniProt P13497); test: Inhibition of recombinant human N-terminal 6His/flag-tagged BMP1 (121 to 721 residues) expressed in CHO cells using ((5-FAM)-ELIDQYDVQRDDSSDGSLED-K(5,6 TAMRA)-CONH2) as substrate preincubated for 10 mins followed by substrate addition measured after 60 mins
T2 sequence (P13497 whole entry): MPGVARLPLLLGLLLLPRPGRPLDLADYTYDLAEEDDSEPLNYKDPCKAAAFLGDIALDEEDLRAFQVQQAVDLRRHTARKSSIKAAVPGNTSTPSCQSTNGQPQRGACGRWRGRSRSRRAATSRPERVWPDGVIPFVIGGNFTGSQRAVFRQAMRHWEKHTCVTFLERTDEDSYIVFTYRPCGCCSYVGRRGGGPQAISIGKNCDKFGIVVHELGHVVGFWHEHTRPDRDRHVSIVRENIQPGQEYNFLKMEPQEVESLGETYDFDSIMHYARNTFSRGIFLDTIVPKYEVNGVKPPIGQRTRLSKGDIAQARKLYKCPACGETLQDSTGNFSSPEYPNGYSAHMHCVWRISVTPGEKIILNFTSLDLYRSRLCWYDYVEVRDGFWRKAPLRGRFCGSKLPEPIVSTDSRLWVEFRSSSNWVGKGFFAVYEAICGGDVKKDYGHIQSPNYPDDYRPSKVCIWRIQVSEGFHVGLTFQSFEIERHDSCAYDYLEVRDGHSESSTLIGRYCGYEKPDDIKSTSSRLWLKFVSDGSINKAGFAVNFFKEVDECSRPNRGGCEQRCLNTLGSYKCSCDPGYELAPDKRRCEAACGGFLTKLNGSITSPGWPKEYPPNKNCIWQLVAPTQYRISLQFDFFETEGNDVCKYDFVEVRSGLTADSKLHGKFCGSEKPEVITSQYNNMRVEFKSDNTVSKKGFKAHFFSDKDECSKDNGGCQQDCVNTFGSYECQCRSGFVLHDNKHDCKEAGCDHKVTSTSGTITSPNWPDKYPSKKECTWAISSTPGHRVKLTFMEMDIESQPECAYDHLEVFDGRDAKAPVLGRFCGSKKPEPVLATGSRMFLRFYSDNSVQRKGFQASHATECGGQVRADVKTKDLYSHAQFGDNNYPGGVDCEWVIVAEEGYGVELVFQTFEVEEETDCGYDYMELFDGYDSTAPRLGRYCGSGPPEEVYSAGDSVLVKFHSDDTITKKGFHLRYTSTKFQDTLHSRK

Homo sapiens [9] = organism: Homo sapiens; test: Selectivity ratio of IC50 for human ACE1 to IC50 for recombinant human N-terminal 6His/flag-tagged BMP1 (121 to 721 residues) expressed in CHO cells; format: cell-based

Chain of Cytochrome P450 3A4 (P08684 whole entry, the tested form may be a part): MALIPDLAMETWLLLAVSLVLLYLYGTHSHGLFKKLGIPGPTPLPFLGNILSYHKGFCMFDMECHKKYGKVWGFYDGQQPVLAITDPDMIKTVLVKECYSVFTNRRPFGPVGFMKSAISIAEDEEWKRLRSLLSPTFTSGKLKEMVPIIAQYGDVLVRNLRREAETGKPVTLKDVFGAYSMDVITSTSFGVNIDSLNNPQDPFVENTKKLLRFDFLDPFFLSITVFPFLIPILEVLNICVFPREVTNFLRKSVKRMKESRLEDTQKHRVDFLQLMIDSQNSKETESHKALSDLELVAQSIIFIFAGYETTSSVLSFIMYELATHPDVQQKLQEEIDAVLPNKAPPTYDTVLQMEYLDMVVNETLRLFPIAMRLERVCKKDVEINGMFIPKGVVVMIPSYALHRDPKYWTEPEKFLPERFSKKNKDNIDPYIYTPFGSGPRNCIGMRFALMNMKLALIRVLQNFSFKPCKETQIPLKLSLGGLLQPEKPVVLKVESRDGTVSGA

CCCCC[C@@H](C(=O)NCNC(=O)c1ccc(-c2ccccc2)o1)[C@@H](CC)N(O)C=O
Ratio IC50 (Homo sapiens [1]): > 30
Ratio IC50 (Homo sapiens [2]): > 30
fold change (FC) (Cytochrome P450 3A4): 4.3
Ratio IC50 (Homo sapiens [3]): > 30
Ratio IC50 (Homo sapiens [4]): > 30
Ratio IC50 (Homo sapiens [5]): > 30
Ratio IC50 (Homo sapiens [6]): > 30
Ratio IC50 (Homo sapiens [7]): > 30
pIC50 (Tolloid-like protein 2): 6.80
pIC50 [8]: 7.49
Ratio IC50 (Homo sapiens [9]): > 30
